Measured values as given in patent US6358921B1, “Antimicrobial peptide compositions and method” (priority 1996, dated 2002).
Like-named read-outs stand apart in the source and are kept apart here.

How the values were obtained:
C. xeroses = assay type: cell-based, Corynebacterium xerosis
Outline: (§1)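 Antimicrobial activity is measured by a liquid-broth assay in LB at 37 °C overnight, starting from 5×10^5 CFU/mL. Values are minimal inhibitory concentrations, i.e. the lowest concentration that stops growth.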

S. aureus K147 = assay type: cell-based, Staphylococcus aureus
Outline: (§2)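 Liquid-broth microdilution: overnight LB cultures at 37 °C, diluted to a final inoculum of 5×10^5 CFU/mL with serial peptide dilutions, incubated overnight at 37 °C. MIC (μg/ml) is the lowest concentration that inhibited growth. Therapeutic index is the concentration giving complete hemolysis at 4 h divided by the MIC.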

S. aureus SAP0017 = assay type: cell-based, Staphylococcus aureus
Outline: as §2

E. coli DC2 = assay type: cell-based, Escherichia coli; details: DC2
Outline: (§3)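 Broth microdilution in LB: overnight 37 °C cultures were diluted and added to serial peptide dilutions at a final 5×10^5 CFU/mL, then incubated overnight at 37 °C. MIC (μg/ml) is the lowest concentration inhibiting growth. Strains include E. faecalis ATCC 29212 and P. aeruginosa H188, the antibiotic-sensitive derivative of H187.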

E. faecalis = assay type: cell-based, Enterococcus faecalis
Outline: as §1

human erythrocytes = experiment: Hemolytic activity; assay type: cell-based
Method: Serial dilutions of the peptides in saline were prepared in round bottom microtitre plates using 100 μL volumes. Red blood cells were diluted with saline to 1/25 packed volume of cells and 50 μL added to each well. Plates were incubated with rocking at 37° C., and the concentration required for complete lysis determined visually after 4 h.

S. epidermidis = assay type: cell-based, Staphylococcus epidermidis
Outline: as §1

P. aeruginosa H187 = assay type: cell-based, Pseudomonas aeruginosa; details: H187
Outline: as §3

C. Albicans = assay type: cell-based, Candida albicans
Outline: as §1

S. typhinurium C587 = assay type: cell-based, Salmonella typhinurium
Outline: as §1

S. typhinurium C610 = assay type: cell-based, Salmonella typhinurium
Outline: as §1

B. subtilis = assay type: cell-based, Bacillus subtilis
Outline: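 Liquid-broth microdilution: overnight LB cultures diluted and added to serial peptide dilutions at final 5×10^5 CFU/mL, incubated overnight at 37 °C. MIC is the lowest concentration inhibiting growth; C. albicans a clinical isolate, S. epidermidis clinical, C. xerosis environmental.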

[1] = Displacement of dansyl-polymyxin from LPS; assay type: binding, P. aeruginosa; details: read-out: LPS binding affinity: peptide concentration to displace 50% of dansyl-polymyxin B from LPS; Tables 1, 4, 7
Outline: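 Peptides titrated into 3 μg/mL P. aeruginosa LPS with 2.5 μM dansyl-polymyxin (~90% site saturation) in 5 mM sodium HEPES, pH 7.0; fluorescence decrease recorded. I50 (50% probe displacement) taken from the x-intercept of a double-reciprocal plot of percent inhibition versus inhibitor concentration.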

P. aeruginosa H188 = assay type: cell-based, Pseudomonas aeruginosa; details: H188
Outline: as §1

E. coli UB1005 = assay type: cell-based, Escherichia coli; details: UB1005
Outline: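 Liquid-broth rather than agar method. Organisms: clinical isolates (C. albicans, S. epidermidis), environmental C. xerosis, wild-type E. coli UB1005.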

SMILES | Minimum Inhibitory Concentration (activity) (C. xeroses) [µg/mL] | Minimum Inhibitory Concentration (activity) (S. aureus K147) [µg/mL] | Minimum Inhibitory Concentration (activity) (S. aureus SAP0017) [µg/mL] | Minimum Inhibitory Concentration (activity) (E. coli DC2) [µg/mL] | Minimum Inhibitory Concentration (activity) (E. faecalis) [µg/mL] | Hemolytic activity: peptide concentration for 100% lysis of human erythrocytes (human erythrocytes) [µg/mL] | Minimum Inhibitory Concentration (activity) (S. epidermidis) [µg/mL] | Minimum Inhibitory Concentration (activity) (P. aeruginosa H187) [µg/mL] | Minimum Inhibitory Concentration (activity) (C. Albicans) [µg/mL] | Minimum Inhibitory Concentration (activity) (S. typhinurium C587) [µg/mL] | Minimum Inhibitory Concentration (activity) (S. typhinurium C610) [µg/mL] | Minimum Inhibitory Concentration (activity) (B. subtilis) [µg/mL] | IC50 [1] [µM] | Minimum Inhibitory Concentration (activity) (P. aeruginosa H188) [µg/mL] | Minimum Inhibitory Concentration (activity) (E. coli UB1005) [µg/mL] | Hemolytic activity: peptide concentration for 100% lysis of human erythrocytes (human erythrocytes; Tables 1, 4, 7) [µg/mL]
CC(C)C[C@@H]1NC(=O)[C@H](CCCCN)NC(=O)[C@H](C(C)C)NC(=O)[C@H](CCCCN)NC(=O)[C@@H]2CCCN2C(=O)[C@@H](Cc2ccc(O)cc2)NC(=O)[C@H](CCCCN)NC(=O)[C@H](CC(C)C)NC(=O)[C@H](CCCCN)NC(=O)[C@H](C(C)C)NC(=O)[C@H](CCCCN)NC(=O)[C@@H]2CCCN2C(=O)[C@@H](Cc2ccc(O)cc2)NC(=O)[C@H](CCCCN)NC1=O [GS14inv] | 0.8 | >200 | 200 | 0.8 | 200 | >800 | 25 | 12.5 | 25 | 50 | 3.1 | >200 | 14 | 6.2 | 12.5 | 
CC(C)C[C@@H]1NC(=O)[C@H](CCCCN)NC(=O)[C@H](CC(C)C)NC(=O)[C@@H]2CCCN2C(=O)[C@@H](Cc2ccccc2)NC(=O)[C@H](CC(C)C)NC(=O)[C@@H](CCCCN)NC(=O)[C@H](CC(C)C)NC(=O)[C@H](CCCCN)NC(=O)[C@H](CC(C)C)NC(=O)[C@@H]2CCCN2C(=O)[C@@H](Cc2ccccc2)NC(=O)[C@H](CC(C)C)NC(=O)[C@H](CCCCN)NC1=O [Y2/F2 V3/L3] | 1 | 9 | 9 | 2 | 1.5 |  | 2 | 12.5 | 3.1 | 35 | 12.5 | 6.2 | 25 | 3.1 | 9 | 12.5
C[C@@H]1NC(=O)[C@H](CCCCN)NC(=O)[C@H](C)NC(=O)[C@@H]2CCCN2C(=O)[C@@H](Cc2ccc(O)cc2)NC(=O)[C@H](C)NC(=O)[C@@H](CCCCN)NC(=O)[C@H](C)NC(=O)[C@H](CCCCN)NC(=O)[C@H](C)NC(=O)[C@@H]2CCCN2C(=O)[C@@H](Cc2ccc(O)cc2)NC(=O)[C@H](C)NC(=O)[C@H](CCCCN)NC1=O [V3L3/A6] | 200 | >200 | >200 | >200 | >200 | >800 | >200 | >200 | 400 | >200 | >200 | >200 | 291 | 75 | >200 | 
CC(C)C[C@@H]1NC(=O)[C@H](CCCCN)NC(=O)[C@H](C)NC(=O)[C@@H]2CCCN2C(=O)[C@@H](Cc2ccc(O)cc2)NC(=O)[C@H](CC(C)C)NC(=O)[C@H](CCCCN)NC(=O)[C@H](C)NC(=O)[C@H](CCCCN)NC(=O)[C@H](CC(C)C)NC(=O)[C@@H]2CCCN2C(=O)[C@@H](Cc2ccc(O)cc2)NC(=O)[C@H](C)NC(=O)[C@@H](CCCCN)NC1=O [V3/A3] | 3.1 | >200 | >200 | 9 | >200 | >800 | 50 | 75 | 50 | 35 | 62 | >200 | 163 | 18 | 12.5 | 
